Measured values as given in PubChem BioAssay AID248 (DTP/NCI, 2004).
Several values for one entry are separate records, joined by “and”; a condition that tells them apart may be missing. Equal values may be shown once. Toxic doses and inconclusive results are not listed. Cut-off read from the data, not from the text of the source: active = T/C of 150% or more; inactive = T/C below 125%.

Test system: L1210 leukemia ip in BDF1 mice, survival T/C
Experiment: NCI In Vivo Anticancer Drug Screen. Data for tumor model L1210 Leukemia (intraperitoneal) in B6D2F1 (BDF1) mice
Conditions: endpoint: mean survival time, higher = longer survival
How it was run: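 Ratio derived from survival: compound-dosed mice over vehicle-dosed mice, all bearing a transplantable tumor.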

[1] = dose: 100.0 mg/kg/injection, schedule: Q01DX001 (ip), vehicle: saline
[2] = dose: 100.0 mg/kg/injection, schedule: Q01DX009 (ip), vehicle: Klucel (hydroxypropylcellulose) (HPC)
[3] = dose: 150.0 mg/kg/injection, schedule: Q01DX001 (ip), vehicle: saline
[4] = dose: 200.0 mg/kg/injection, schedule: Q01DX009 (ip), vehicle: Klucel (hydroxypropylcellulose) (HPC)
[5] = dose: 200.0 mg/kg/injection, schedule: Q04DX002 (ip), vehicle: saline
[6] = dose: 400.0 mg/kg/injection, schedule: Q04DX002 (ip), vehicle: saline
[7] = dose: 50.0 mg/kg/injection, schedule: Q01DX009 (ip), vehicle: saline with Tween-80
[8] = dose: 100.0 mg/kg/injection, schedule: Q01DX009 (ip), vehicle: saline with Tween-80
[9] = dose: 100.0 mg/kg/injection, schedule: Q04DX003 (ip), vehicle: Klucel (hydroxypropylcellulose) (HPC)
[10] = dose: 200.0 mg/kg/injection, schedule: Q04DX003 (ip), vehicle: Klucel (hydroxypropylcellulose) (HPC)
[11] = dose: 400.0 mg/kg/injection, schedule: Q01DX009 (ip), vehicle: Klucel (hydroxypropylcellulose) (HPC)
[12] = dose: 400.0 mg/kg/injection, schedule: Q04DX003 (ip), vehicle: Klucel (hydroxypropylcellulose) (HPC)
[13] = dose: 150.0 mg/kg/injection, schedule: Q01DX009 (ip), vehicle: saline with Tween-80
[14] = dose: 50.0 mg/kg/injection, schedule: Q01DX009 (ip), vehicle: saline
[15] = dose: 100.0 mg/kg/injection, schedule: Q01DX009 (ip), vehicle: saline
[16] = dose: 100.0 mg/kg/injection, schedule: Q04DX003 (ip), vehicle: saline
[17] = dose: 100.0 mg/kg/injection, schedule: Q04DX003 (ip), vehicle: saline with Tween-80
[18] = dose: 200.0 mg/kg/injection, schedule: Q04DX003 (ip), vehicle: saline with Tween-80
[19] = dose: 100.0 mg/kg/injection, schedule: Q04DX002 (ip), vehicle: saline
[20] = dose: 400.0 mg/kg/injection, schedule: Q04DX003 (ip), vehicle: saline with Tween-80

Measured: T/C

CCOC(=O)C(C)(O)C(C)(Cl)c1ccccc1 (stereo not given)
inactive: dose: 25.0 mg/kg/injection, schedule: Q01DX009 (ip), vehicle: Klucel (hydroxypropylcellulose) (HPC) 98 % of control | dose: 25.0 mg/kg/injection, schedule: Q04DX002 (ip), vehicle: saline 102 % of control | dose: 28.0 mg/kg/injection, schedule: Q01DX001 (ip), vehicle: saline 107 % of control | dose: 44.0 mg/kg/injection, schedule: Q01DX001 (ip), vehicle: saline 106 % of control | dose: 50.0 mg/kg/injection, schedule: Q01DX009 (ip), vehicle: Klucel (hydroxypropylcellulose) (HPC) 96 % of control | dose: 50.0 mg/kg/injection, schedule: Q04DX002 (ip), vehicle: saline 114 % of control | dose: 66.0 mg/kg/injection, schedule: Q01DX001 (ip), vehicle: saline 104 % of control | [1] 101 % of control | [2] 101 % of control | [3] 104 % of control | [4] 98 % of control | [5] 109 % of control and 111 % of control | [6] 114 % of control

CCN(CC)C(=O)SCCSC(=O)N(CC)CC
inactive: dose: 25.0 mg/kg/injection, schedule: Q01DX009 (ip), vehicle: saline with Tween-80 110 % of control | [7] 110 % of control | [8] 93 % of control

CC(O)c1ccc(Cl)c(Cl)c1 (stereo not given)
inactive: [2] 91 % of control | [9] 98 % of control | [4] 90 % of control | [10] 109 % of control | [11] 101 % of control | [12] 104 % of control

CC(=O)N1CCc2nc3ccccc3cc21
inactive: dose: 37.5 mg/kg/injection, schedule: Q01DX009 (ip), vehicle: saline with Tween-80 96 % of control | dose: 37.5 mg/kg/injection, schedule: Q04DX003 (ip), vehicle: saline 104 % of control | dose: 75.0 mg/kg/injection, schedule: Q01DX001 (ip), vehicle: saline 95 % of control | dose: 75.0 mg/kg/injection, schedule: Q01DX009 (ip), vehicle: saline with Tween-80 94 % of control | dose: 75.0 mg/kg/injection, schedule: Q04DX003 (ip), vehicle: saline 104 % of control | [3] 101 % of control | [13] 88 % of control | dose: 150.0 mg/kg/injection, schedule: Q04DX003 (ip), vehicle: saline 106 % of control

NC(CS/C(Cl)=C/Cl)C(=O)O (stereo not given)
inactive: dose: 1.5 mg/kg/injection, schedule: Q01DX009 (ip), vehicle: saline 101 % of control | dose: 3.0 mg/kg/injection, schedule: Q01DX009 (ip), vehicle: saline 106 % of control | dose: 6.0 mg/kg/injection, schedule: Q01DX009 (ip), vehicle: saline 104 % of control | dose: 12.0 mg/kg/injection, schedule: Q01DX009 (ip), vehicle: saline 98 % of control | dose: 17.0 mg/kg/injection, schedule: Q01DX009 (ip), vehicle: saline 101 % of control | dose: 27.0 mg/kg/injection, schedule: Q01DX009 (ip), vehicle: saline 95 % of control

O=S(=O)(O)CCN1CCN(CCS(=O)(=O)O)CC1
inactive: [2] 95 % of control | [4] 95 % of control | [11] 101 % of control

COc1cc(N(CCCl)CCCl)ccc1C=Nc1ccc2c(c1)ncn2C
inactive: dose: 75.0 mg/kg/injection, schedule: Q04DX002 (ip), vehicle: Klucel (hydroxypropylcellulose) (HPC) 112 % of control | dose: 150.0 mg/kg/injection, schedule: Q04DX002 (ip), vehicle: Klucel (hydroxypropylcellulose) (HPC) 101 % of control | dose: 300.0 mg/kg/injection, schedule: Q04DX002 (ip), vehicle: Klucel (hydroxypropylcellulose) (HPC) 108 % of control

CN(C)CCCn1c2ccccc2c2cnccc21
inactive: [14] 100 % of control | [15] 89 % of control | [16] 97 % of control

CC1=NCCc2c1cc1c([nH]c3ccccc31)c2C
active: dose: 100.0 mg/kg/injection, schedule: Q01DX009 (ip), vehicle: other 151 % of control | [8] 151 % of control | [13] 178 % of control
inactive: dose: 14.0 mg/kg/injection, schedule: Q01DX Z (ip), vehicle: carboxymethylcellulose (CMC) 106 % of control | dose: 28.0 mg/kg/injection, schedule: Q01DX Z (ip), vehicle: carboxymethylcellulose (CMC) 107 % of control | dose: 44.0 mg/kg/injection, schedule: Q01DX009 (ip), vehicle: other 121 % of control | dose: 44.0 mg/kg/injection, schedule: Q01DX009 (ip), vehicle: saline with Tween-80 115 % of control | [7] 101 % of control | dose: 56.0 mg/kg/injection, schedule: Q01DX Z (ip), vehicle: carboxymethylcellulose (CMC) 113 % of control | dose: 100.0 mg/kg/injection, schedule: Q04DX003 (ip), vehicle: acetone 110 % of control | [17] 110 % of control | dose: 112.0 mg/kg/injection, schedule: Q01DX Z (ip), vehicle: carboxymethylcellulose (CMC) 123 % of control | dose: 177.0 mg/kg/injection, schedule: Q04DX003 (ip), vehicle: saline with Tween-80 122 % of control | dose: 200.0 mg/kg/injection, schedule: Q01DX009 (ip), vehicle: saline with Tween-80 101 % of control | dose: 200.0 mg/kg/injection, schedule: Q04DX003 (ip), vehicle: acetone 102 % of control | [18] 115 % of control | dose: 210.0 mg/kg/injection, schedule: Q01DX009 (ip), vehicle: other 98 % of control | dose: 266.0 mg/kg/injection, schedule: Q04DX003 (ip), vehicle: saline with Tween-80 124 % of control

c1ccc(CSC(Cc2ccccc2)(SCc2ccccc2)c2ccccc2)cc1
inactive: dose: 50.0 mg/kg/injection, schedule: Q01DX001 (ip), vehicle: saline 102 % of control | [1] 104 % of control | dose: 200.0 mg/kg/injection, schedule: Q01DX001 (ip), vehicle: saline 98 % of control | dose: 400.0 mg/kg/injection, schedule: Q01DX001 (ip), vehicle: saline 104 % of control

O=C1CCOP(=O)(NCCCl)N1CCCl (stereo not given)
inactive: [19] 115 % of control
active: [6] 175 % of control

OC1(C2(O)CCCC2)CCCC1
inactive: [17] 98 % of control | [18] 98 % of control | [20] 95 % of control

Cc1nc2ccccc2s1
inactive: [19] 106 % of control | [5] 98 % of control | [6] 102 % of control

Cc1cc(S(=O)(=O)F)ccc1NC(=O)NCc1ccc([N+](=O)[O-])cc1Cl
inactive: [9] 112 % of control | [10] 101 % of control

NC(=S)N=Nc1c(O)n(C2OC(CO)C(O)C(O)C2O)c2ccccc12 (stereo not given)
inactive: dose: 50.0 mg/kg/injection, schedule: Q01DX005 (ip), vehicle: saline 88 % of control | dose: 100.0 mg/kg/injection, schedule: Q01DX005 (ip), vehicle: saline 94 % of control

Cc1cc(C)n(N=C2CCCCC2)c(=O)c1C#N
inactive: dose: 100.0 mg/kg/injection, schedule: Q01DX001 (ip), vehicle: Klucel (hydroxypropylcellulose) (HPC) 96 % of control | [9] 100 % of control | dose: 200.0 mg/kg/injection, schedule: Q01DX001 (ip), vehicle: Klucel (hydroxypropylcellulose) (HPC) 105 % of control | [10] 99 % of control | dose: 400.0 mg/kg/injection, schedule: Q01DX001 (ip), vehicle: Klucel (hydroxypropylcellulose) (HPC) 94 % of control | [12] 89 % of control

CCOC(=O)CN1C(=O)NC2(CCc3ccccc3C2)C1=O (stereo not given)
inactive: [20] 98 % of control

CC1(COC(=O)Nc2cccc3ccccc23)CC2C=CC1C2 (stereo not given)
inactive: dose: 75.0 mg/kg/injection, schedule: Q01DX001 (ip), vehicle: saline with Tween-80 96 % of control | dose: 150.0 mg/kg/injection, schedule: Q01DX001 (ip), vehicle: saline with Tween-80 91 % of control | dose: 300.0 mg/kg/injection, schedule: Q01DX001 (ip), vehicle: saline with Tween-80 88 % of control

ClCc1nc2nc(Cl)c(Cl)nc2[nH]1
inactive: [14] 88 % of control | [15] 102 % of control | [16] 101 % of control | dose: 200.0 mg/kg/injection, schedule: Q01DX009 (ip), vehicle: saline 102 % of control | dose: 200.0 mg/kg/injection, schedule: Q04DX003 (ip), vehicle: saline 101 % of control | dose: 400.0 mg/kg/injection, schedule: Q04DX003 (ip), vehicle: saline 98 % of control
